# Laboratory results as given in patent US8354265B2, “Chemicals promoting the growth of N-acylhomoserine lactone-degrading bacteria” (Centre National de la Recherche Scientifique, priority 2007, dated 2013).
# Entries after “also recorded” stand apart in the source; their conditions may differ.
# Tests used:
# [1] = system: bacteria recovered from the consortia; test: NAHL production and inactivation by isolates recovered from the consortia, with rrs identification; type: cell-based; settings: for NAHL-producing bacteria among isolates of the consortia: 280 isolates from 280 independent enrichments
# [2] = system: Erwinia carotovora subsp. atroseptica 6276; test: Maceration assay on potato tubers (biocontrol activity of consortia); type: in vivo; settings: potato tubers infected with mix of Erwinia carotovora 6276 and consortia
# Description: FIG. 6: Maceration assay on potato tubers.
# (§1) The Mannitol-, 6CL-, GCL-, and HTN-consortia were compared for their capacity to inactivated OC8-HSL, the major NAHL produced by the plant pathogen Erwinia carotovora subsp. atroseptica 6276, as well as for their biocontrol activity against this pathogen in potato maceration assay.
# [3] = system: bacterial consortia from unplanted soil; test: C6-HSL inactivation by bacterial consortia enriched from unplanted soil on the compound as sole carbon source; type: cell-based; settings: soil and rhizospheric samples; among 25 assayed molecules
# soil bacterial consortia = test: NAHL (C6-HSL, OC8-HSL) inactivation by soil consortia enriched on second set of compounds; type: cell-based; settings: C6-HSL 25 μM or OC8-HSL 200 nM
# Description: FIG. 4: Kinetics of NAHL inactivation by bacterial consortia. (A) NAHL is C6-HSL with an initial concentration of 25 μM (B) NAHL is 3-oxo-octanoylhomoserine lactone (OC8-HSL), with an initial concentration of 200 nM. The different bacterial consortia obtained after enrichment on the indicated compounds as a sole carbon source (mannitol is abbreviated as Man) were tested to for their capacity to inactivate NAHL signal. At each time (0, 1, 3 and 5 hrs), the uninoculated control (C) was used to estimate the percentage of residual NAHL.
# Non sterile soil from the CNRS experimental field (Mérantaise) at Gif-sur-Yvette (France) was mixed with sterile sand Loire River and distributed into pots (20 cm in diameter). Some of them were sown with disinfected seeds of Nicotiana tabacum cv. Samson. Pots were randomly placed in the greenhouse (CNRS, Gif-sur-Yvette), under a long day conditions (16 h) at 17° C. (night) and 24° C. (day), and watered daily with tap water. One gram of unplanted or rhizospheric (3-months aged plants) soil was resuspended in 10 mL of sterile 0.8% NaCl. […] After a 3-days incubation at 25° C. under shaking (180 rpm), the cell cultures were diluted (1/50) into fresh AB media for an additional 2-days enrichment step. […]
# [4] = system: bacterial consortia originating from rhizospheric soil; test: C6-HSL inactivation by bacterial consortia enriched from rhizospheric soil; type: cell-based
# bacterial consortia = test: Inactivation of C6-HSL and OC8-HSL by mannitol, 6CL, GCL and HTN consortia; type: cell-based
# Description: as §1
# [5] = system: NAHL-degrading bacteria in the nutritive solution; test: Ratio of NAHL-degrading bacteria in unplanted batches of nutritive solution; type: cell-based; settings: for percentage of NAHL-degrading bacteria in the nutritive solution: without plants
# Description: (§2) The non sterile batches (40×60×8 cm) contained 13 L of the nutritive solution Hydrobloom (Cellmax, UK) with Nitrogen at 0.80 g/L, Phosphore at 0.56 g/L and Potassium at 1.48 g/L as major components. The solution was diluted from a concentrated stock solution (×250) with non sterile water from the public water system. One hundred plants of Solanum tuberosum var. Allians, which were recovered from cultures performed under sterile conditions, were placed into holes (3 cm space to each other) of batch covers. Planted batches were placed in the greenhouse (Comité Nord Plants de Pomme de Terre, Bretteville-du-Grand-Caux) under natural light at 10-15° C. (night) and 25-30° C. (day). […] An untreated batch was used as a control. One gram of roots (fresh weight) was resuspended in 10 mL of sterile MgSO4 10 mM, diluted and spread on TSA and King B plates to isolate total cultivable bacteria and fluorescent Pseudomonas, respectively. Three samples were analyzed from each batch at each time D0, D14 and D28; from each sample, thirty isolates from TSA plates and thirty fluorescent isolates from King B plates were individually tested from production and inactivation of NAHL signal.
# (§3) Bacterial isolates grown in 96-microwell plates were individually tested from production of NAHL with the A. tumefaciens biosensor NT1 (pZNLR4) and the inactivation of the C6-HSL signal, as described previously (d'Angelo-Picard et al. 2004).
# Allians was evaluated. The plants were cultivated in vitro under sterile conditions, then placed into batches in a greenhouse at Bretteville-du-Grand-Caux (France) in a non-sterile environment. Especially, a non-sterile nutritive solution was used and served as a source of naturally occurring bacteria. […] The ratio of NAHL-degrading bacteria in the nutritive solution was evaluated before the treatment and 14-day later. This percentage increased from 10±2 to 30±2 in the case of the 6CL-treated batch and from 10±2 to 70±2 in the GCL-treated batch. From the 6CL- and GCL-treated batches, 10 NAHL-degrading bacteria were identified by their rrs sequence: 9 belonged to the Delftia genus, the other one to the Rhodococcus genus.
# [6] = system: NAHL-degrading rhizobacteria of potato rhizosphere; test: Preliminary experiment in planted hydroponic batches: level and diversity of NAHL-degrading rhizobacteria (Table 1); type: in vivo, Solanum tuberosum var. Allians
# Description: as §2, §3
# At least 400 bp were submitted to the NCBI database.
# [7] = system: NAHL-degrading and NAHL-producing bacteria of potato rhizosphere; test: Two independent analyses of 6CL and GCL treatments on planted batches (FIG. 7); type: in vivo, Solanum tuberosum var. Allians
# Description: FIG. 7: Percentage of NAHL-degrading and NAHL-producing strains in potato rhizosphere. […] An untreated batch was used as a control in the two independent sets of experiments. The mean of three replicates is shown. Statistically different values (Student t test; 0.05) are noted by different letters.
# as §2, §3
# An untreated batch was used as a control.
# [8] = system: NAHL-degrading rhizobacteria; test: Diversity of NAHL-degrading rhizobacteria after 6CL and GCL treatments, rrs sequencing (Table 2); type: in vivo, Solanum tuberosum; settings: D14 and D28; 0.1 mL/L
# Description: as §2
# (§4) The 5′-end of the rrs gene was amplified with primers pA (5′-[…]) (SEQ ID NO:1) and 518r (5′-[…]) (SEQ ID NO:2), and sequenced with pA primer by GenomeExpress (Meylan, France). At least 400 bp were submitted to the NCBI database. Although some sequence comparisons authorized identification of isolates at the species level, only the genus level was retained in this study for homogeneity.
# The isolates were identified by rrs-sequencing (Table 2). At D0, most of the NAHL-degrading isolates were identified as Delftia. However, at D14 and D28, the Agrobacterium isolates dominated in untreated batches, while they were not detected in the treated batches. In those, the more frequently counted bacteria were Delftia and Rhodococcus.
# young plants = settings: in vivo
# [9] = system: NAHL-degrading bacteria of potato rhizosphere; test: HTN treatment on planted batches (FIG. 9); type: in vivo, Solanum tuberosum
# Description: FIG. 9: Percentage of NAHL-degrading and NAHL-producing strains in potato rhizosphere after treatment with HTN. The percentage of NAHL degraders and NAHL producers was estimated among cultivable bacteria (cfu/g of fresh weight of roots), which were recovered from potato rhizospheres before the treatment (D0; white columns), 14 days (D14; dark grey columns), 28 days (D28; black columns) after the first treatment and 42 days after the first treatment, i.e., 14 days after the second treatment (D42; grey columns). The letters indicate statistically different values (Student's t-test; 0.05).
# The non sterile batches (40×60×8 cm) contained 13 L of the nutritive solution Hydrobloom (Cellmax, UK) with Nitrogen at 0.80 g/L, Phosphore at 0.56 g/L and Potassium at 1.48 g/L as major components. The solution was diluted from a concentrated stock solution (×250) with non sterile water from the public water system. One hundred plants of Solanum tuberosum var. Allians, which were recovered from cultures performed under sterile conditions, were placed into holes (3 cm space to each other) of batch covers. […] Three samples were analyzed from each batch at each time D0, D14 and D28; from each sample, thirty isolates from TSA plates and thirty fluorescent isolates from King B plates were individually tested from production and inactivation of NAHL signal. […]
# [10] = system: NAHL-degrading rhizobacteria; test: Diversity of NAHL-degrading rhizobacteria after HTN treatments, rrs sequencing (Table 3); type: in vivo, Solanum tuberosum
# Description: as §4
# To analyze the impact of HTN on the diversity of NAHL-degrading strains, 50 NAHL-degrading strains were sampled from the third set of experiments, at the beginning of the experiments (D0) and after 14 and 42 days. The isolates were identified by rrs-sequencing (Table 3). At D0, all of the 5 NAHL-degrading isolates analyzed were identified as Agrobacterium. However, at D14 and D42, the Rhodococcus isolates dominated in treated batches, in which Delftia and Sinorhizobium were also detected
# [11] = 6CL- and GCL-treated batches together, rrs sequence
smiles,measurement,setting,value
"OC[C@@H](O)[C@@H](O)[C@H](O)[C@H](O)CO [Mannitol, mannitol, reference compound]",NAHL-producing bacteria among isolates of the consortia,[1],10 % of the tested strains
same,biocontrol activity of the consortia against E. carotovora 6276,[2],did not
"C1CCOC1 [THF, tetrahydrofurane]",NAHL-inactivating bacteria recovered from consortia,[1],recovered
same,NAHL-producing bacteria among isolates of the consortia,[1],41 % of the tested strains
"CCCCC1CCC(=O)O1 (centres unmarked) [GOL, gamma-octalactone]",growth stimulation of NAHL-degrading bacteria after enrichment procedures,[3],stimulated the growth of NAHL-degrading bacteria
same,efficiency for obtaining NAHL-degrading consortia (ranking),soil bacterial consortia,most efficient
"OCC1CCCO1 (centres unmarked) [THA, tetrahydrofurfuryl alcohol]",activity of consortia towards C6-HSL (ranking),[4],the most active
same,NAHL-inactivating bacteria recovered from consortia,[1],recovered
same,NAHL-producing bacteria among isolates of the consortia,[1],13 % of the tested strains
"O=C1CCCCCO1 [6CL, 6-caprolactone, reference compound]",growth stimulation of NAHL-degrading bacteria after enrichment procedures,[3],stimulated the growth of NAHL-degrading bacteria
same,activity of consortia towards C6-HSL (ranking),[4],the most active
same,NAHL-inactivating bacteria recovered from consortia,[1],recovered
same,NAHL-degrading isolates related to Chryseobacterium,[1]; 6CL and GCL consortia together,10%
same,NAHL-degrading isolates related to Delftia,[1]; 6CL and GCL consortia together,80 % of the identified strains
same,NAHL-degrading isolates related to Ralstonia,[1]; 6CL and GCL consortia together,3%
same,NAHL-degrading isolates related to Rhodococcus,[1]; 6CL and GCL consortia together,7%
same,NAHL-producing bacteria among isolates of the consortia,[1],none
same,speed of C6-HSL signal inactivation versus Mannitol consortia,bacterial consortia,inactivated more rapidly
same,speed of OC8-HSL signal inactivation versus Mannitol consortia,bacterial consortia,inactivated more rapidly
same,biocontrol activity of the consortia against E. carotovora 6276,[2],did not
same,NAHL-degrading bacteria belonging to the Delftia genus (of 10 identified),[5]; [11],9
same,NAHL-degrading bacteria belonging to the Rhodococcus genus (of 10 identified),[5]; [11],one
same,percentage of NAHL-degrading bacteria in the nutritive solution,[5]; 14-day after treatment at 1 mL/L,30±2%
same,percentage of NAHL-degrading bacteria in the nutritive solution,[5]; before the treatment,10±2%
same,increase of the ratio of NAHL-degrading bacteria,"[6]; 0.1 mL/L, 28 days after amendment, planted batches",not
same,Log CFU/gram of root (fresh weight),[6]; D0 (before treatment),8.0 ± 7.6 Log CFU/gram of root (fresh we
same,NAHL degraders (%),[6]; D0 (before treatment),8.9 ± 1.5 %
same,NAHL producers (%),[6]; D0 (before treatment),7.8 ± 1.2%
same,rrs-identified NAHL-degraders: Delftia,"[6]; D0, of 8 isolates",7
same,rrs-identified NAHL-degraders: Pseudomonas,"[6]; D0, of 8 isolates",1
same,Log CFU/gram of root (fresh weight),"[6]; D28, 0.1 mL/L",10.5 ± 10.1 Log CFU/gram of root (fresh we
same,NAHL degraders (%),"[6]; D28, 0.1 mL/L",6.7 ± 1.7 %
same,NAHL producers (%),"[6]; D28, 0.1 mL/L",5.6 ± 0.6%
same,identified genera of NAHL-degrading bacteria,"[6]; D28, 0.1 mL/L",3
same,rrs-identified NAHL-degraders: Agrobacterium,"[6]; D28, 0.1 mL/L, of 8 isolates",4
same,rrs-identified NAHL-degraders: Delftia,"[6]; D28, 0.1 mL/L, of 8 isolates",2
same,rrs-identified NAHL-degraders: Pseudomonas,"[6]; D28, 0.1 mL/L, of 8 isolates",2
same,specific effect on the NAHL-degrading bacteria of the rhizosphere,[7]; 0.1 mL/L,no specific effect
same,proportion of NAHL-degrading bacteria,"[7]; 0.1 mL/L, during all experiments",remained at a quite similar level
same,modification of the ratio of NAHL-producing bacteria,"[7]; 6CL 0.1 mL/L, GCL 0.1 and 0.4 mL/L, D14 and D28",no repeatable modification
same,rrs-identified NAHL-degraders: Delftia,[8],9
same,rrs-identified NAHL-degraders: Others,[8],2
same,rrs-identified NAHL-degraders: Rhizobium,[8],1
same,rrs-identified NAHL-degraders: Rhodococcus,[8],6
same,sensitivity of young plants,young plants,sensitive
"O=C1CCCO1 [GBL, gamma-butyrolactone]",NAHL-producing bacteria among isolates of the consortia,[1],12 % of the tested strains
"CCCC1CCC(=O)O1 (centres unmarked) [HTN, 4-heptanolide]",growth stimulation of NAHL-degrading bacteria after enrichment procedures,[3],stimulated the growth of NAHL-degrading bacteria
same,activity of consortia towards C6-HSL (ranking),[4],the most active
same,efficiency for obtaining NAHL-degrading consortia (ranking),soil bacterial consortia,most efficient
same,NAHL-inactivating bacteria recovered from consortia,[1],recovered
same,NAHL-producing bacteria among isolates of the consortia,[1],none
same,NAHL-degrading isolates belonging to the Rhodococcus genus,"[1]; HTN consortia, rrs sequence",All seventeen
same,speed of C6-HSL signal inactivation versus Mannitol consortia,bacterial consortia,inactivated more rapidly
same,speed of OC8-HSL signal inactivation versus Mannitol consortia,bacterial consortia,inactivated more rapidly
same,biocontrol activity of the consortia against E. carotovora 6276,[2],biocontrol activity was observed; also recorded: showed biocontrol activity
same,ability to stimulate the growth of NAHL-degrading bacteria,"[9]; 0.1 and 0.4 mL/L, second treatment at day 28, D14, D28, D42",confirmed the ability of HTN to stimulate the growth of NAHL-degrading bacteria
same,percentage of NAHL-degrading bacteria among total cultivable bacteria,[9]; applied to hydroponic plant cultures (FIG. 9),significant increase
same,Rhodococcus isolates among NAHL-degrading isolates in treated batches,[10]; D14 and D42,dominated
same,rrs-identified NAHL-degraders: Delftia,"[10]; D 14 and D 42, 0.1 mL/L",1
same,rrs-identified NAHL-degraders: Rhodococcus,"[10]; D 14 and D 42, 0.1 mL/L",16
same,rrs-identified NAHL-degraders: Rhodococcus,"[10]; D 14 and D 42, 0.4 mL/L",27
same,rrs-identified NAHL-degraders: Sinorhizobium,"[10]; D 14 and D 42, 0.4 mL/L",1
